# Assays:
# [1] = molecular target: T1, human EP4 receptor (hEP4) (Homo sapiens, UniProt P35408); assay: Radioligand binding competition vs [3H]PGE2, human recombinant EP4 receptor; settings: [3H]PGE2 competition, plasma membranes of HEK-293 stable transfectants, 60 min 25° C.
# T1 construct: expressed in transfected cells; plasma membrane fraction
# Method: (§1) Human Recombinant EP1, EP2, EP4, and FP Receptors: Stable Transfectants
# (§2) HEK-293 cells stably expressing the human or feline FP receptor, or EP1, EP2, EP3, or EP4 receptors were washed with TME buffer, scraped from the bottom of the flasks, and homogenized for 30 sec using a Brinkman PT 10/35 polytron. TME buffer was added to achieve a final 40 ml volume in the centrifuge tubes (the composition of TME is […]; ION HCl is added to achieve a pH of 7.4).
# (§3) The cell homogenate was centrifuged at 19000 r.p.m. for 20 min at 4° C. using a Beckman Ti-60 rotor. The resultant pellet was resuspended in TME buffer to give a final 1 mg/ml protein concentration, as determined by Biorad assay. Radioligand binding competition assays vs. [^3H-]17 -phenyl PGF2α (5 nM) were performed in a 100 μl volume for 60 min. Binding reactions were started by adding plasma membrane fraction. The reaction was terminated by the addition of 4 ml ice-cold TRIS-HCl buffer and rapid filtration through glass fiber GF/B filters using a Brandel cell harvester. The filters were washed 3 times with ice-cold buffer and oven dried for one hour. Non-specific binding was determined with 10 uM unlabeled 17 -phenyl PGF2α.
# (§4) [^3H-] PGE2 (5 nM; specific activity 180 Ci mmol) was used as the radioligand for EP receptors. Binding studies employing EP1, EP2, EP3, EP4 were performed in duplicate in at least three separate experiments. A 200 μl assay volume was used. Incubations were for 60 min at 25° C. and were terminated by the addition of 4 ml of ice-cold 50 mM TRIS-HCl, followed by rapid filtration through Whatman GF/B filters and three additional 4 ml washes in a cell harvester (Brandel). Non-specific binding determined with 10^−5M of unlabeled PGE2,.
# (§5) Plasmids encoding the human EP1, EP2, EP4, and FP receptors were prepared by cloning the respective coding sequences into the eukaryotic expression vector pCEP4 (Invitrogen). The pCEP4 vector contains an Epstein Barr virus (EBV) origin of replication, which permits episomal replication in primate cell lines expressing EBV nuclear antigen (EBNA-1). Similarly, competitive experiments were caried out using [3H]17-phenylPGF2α at 5 nM in the presence of test ligands at various concentrations. Also non-specific binding was, determined in the presence of excess unlabeled PGF2α (10^−5 M).
# (§6) It also contains a hygromycin resistance gene that is used for eukaryotic selection. The cells employed for stable transfection were human embryonic kidney cells (HEK-293) that were transfected with and express the EBNA-1 protein. These HEK-293-EBNA cells (Invitrogen) were grown in medium containing Geneticin (G418) to maintain expression of the EBNA-1 protein. HEK-293 cells were grown in DMEM with 10% fetal bovine serum (FBS), 250 μg ml G418 (Life Technologies) and 200 μg ml^−1 gentamicin or penicillin/streptomycin.
# (§7) For transfection, the cells were grown to 50-60% confluency on 10 cm plates. The plasmid pCEP4 incorporating cDNA inserts for the respective human prostanoid receptor (20 μg) was added to 500 μl of 250 mM CaCl2. HEPES buffered saline ×2 (2×HBS, 280 mM NaCl, 20 mM HEPES acid, 1.5 mM Na2 HPO4, pH 7.05-7.12) was then added dropwise to a total of […], with continuous vortexing at room temperature. After 30 min, 9 ml DMEM were added to the mixture. The DNA/DMEM/calcium phosphate mixture was then added to the cells, which had been previously rinsed with 10 ml PBS. The cells were then incubated for 5 hr at 37° C. in humidified 95% air/5% CO2. The calcium phosphate solution was then removed and the cells were treated with 10% glycerol in DMEM for 2 min. The glycerol solution was then replaced by DMEM with 10% FBS. The cells were incubated overnight and the medium was replaced by DMEM/10% FBS containing 250 μg ml^−1 G418 and penicillin/streptomycin. The following day hygromycin B was added to a final concentration of 200 μg ml^−1. […]
# [2] = molecular target: T2, human EP2 receptor (hEP2) (Homo sapiens, UniProt P43116); assay: Radioligand binding competition vs [3H]PGE2, human recombinant EP2 receptor; settings: [3H]PGE2 competition, plasma membranes of HEK-293 stable transfectants, 60 min 25° C.
# T2 construct: expressed in transfected cells; plasma membrane fraction
# T2 sequence (P43116 whole entry): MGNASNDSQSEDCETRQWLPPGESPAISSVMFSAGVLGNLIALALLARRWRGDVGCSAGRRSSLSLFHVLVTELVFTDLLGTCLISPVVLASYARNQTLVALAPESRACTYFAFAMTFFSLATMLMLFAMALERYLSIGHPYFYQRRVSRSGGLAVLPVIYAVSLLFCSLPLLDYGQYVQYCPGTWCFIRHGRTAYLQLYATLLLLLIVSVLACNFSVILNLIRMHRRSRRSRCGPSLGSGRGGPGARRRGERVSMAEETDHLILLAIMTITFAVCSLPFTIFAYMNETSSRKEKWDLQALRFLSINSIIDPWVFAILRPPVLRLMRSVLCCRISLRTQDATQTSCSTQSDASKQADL
# Method: as §1, §2, §3, §4, §5, §6, §7
# [3] = molecular target: T3, human EP3 receptor (hEP3, D isoform) (Homo sapiens, UniProt P43115); assay: Radioligand binding competition vs [3H]PGE2, human recombinant EP3 receptor; settings: [3H]PGE2 competition, plasma membranes of transfected cells (COS-7 transient; HEK-293 also named), 60 min 25° C.
# T3 construct: expressed in transfected cells; host or cells: COS-7 cells, transient transfection with pcDNA3 (lipofectin); plasma membrane fraction
# T3 sequence (P43115 1-374 isoform P43115-4): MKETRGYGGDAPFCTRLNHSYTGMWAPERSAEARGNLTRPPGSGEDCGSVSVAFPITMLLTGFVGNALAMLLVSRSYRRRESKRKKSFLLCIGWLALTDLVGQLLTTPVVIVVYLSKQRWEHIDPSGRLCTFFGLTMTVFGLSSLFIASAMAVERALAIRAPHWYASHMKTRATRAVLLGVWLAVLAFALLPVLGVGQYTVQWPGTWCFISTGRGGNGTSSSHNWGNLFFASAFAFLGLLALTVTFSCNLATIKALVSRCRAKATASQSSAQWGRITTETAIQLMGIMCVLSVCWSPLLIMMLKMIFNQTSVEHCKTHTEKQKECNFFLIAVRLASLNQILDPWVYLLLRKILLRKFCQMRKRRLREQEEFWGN
# Method: as §2, §4
# Human Recombinant EP3 and TP Receptors: Transient Transfectants.
# Plasmids encoding the human EP3 (D isoform) or TP receptor were prepared by cloning the respective coding sequences into a pcDNA3 vector (Invitrogen). COS-7 cells were transfected with pcDNA3 containing cDNA encoding the EP3 or TP receptor by employing the lipofectin method, according to the manufacturers instructions (Gibco). For radioligand binding studies, cells were harvested two days after transfection.
# Radioligand binding studies on plasma membrane fractions prepared from cells were performed as follows. Cells washed with TME buffer were scraped from the bottom of the plates and homogenized for 30 sec using a Brinkman PT 10/35 polytron. TME buffer was added as necessary to achieve a 40 ml volume in the centrifuge tubes. TME is comprised of 50 mM TRIS base, 10 mM MgCl2, 1 mM EDTA; pH 7.4 is achieved by adding 1 N HCl. The cell homogenate was centrifuged at 19,000 rpm for 20-25 min at 4° C. using a Beckman Ti-60 or T ? -70 rotor. The pellet was then resuspended in TME buffer to provide a final protein concentration of 1 mg/ml, as determined by Bio-Rad assay. Radioligand binding assays were performed in a 100 μl or 200 μl volume.
# The binding of [^3H] PGE2 (specific activity 165 Ci/mmol) was determined in duplicate and, in at least 3 separate experiments. Incubations were for 60 min at 25° C. and were terminated by the addition of 4 ml of ice-cold 50 mM TRIS-HCl followed by rapid filtration through Whatman GF/B filters and three additional 4 ml washes in a cell harvester (Brandel). Competition studies were performed using a final concentration of 2.5 or 5 nM [H] PGE2 and non-specific binding was determined with 10^−5 M unlabelled PGE2.
# T1 sequence (P35408 whole entry): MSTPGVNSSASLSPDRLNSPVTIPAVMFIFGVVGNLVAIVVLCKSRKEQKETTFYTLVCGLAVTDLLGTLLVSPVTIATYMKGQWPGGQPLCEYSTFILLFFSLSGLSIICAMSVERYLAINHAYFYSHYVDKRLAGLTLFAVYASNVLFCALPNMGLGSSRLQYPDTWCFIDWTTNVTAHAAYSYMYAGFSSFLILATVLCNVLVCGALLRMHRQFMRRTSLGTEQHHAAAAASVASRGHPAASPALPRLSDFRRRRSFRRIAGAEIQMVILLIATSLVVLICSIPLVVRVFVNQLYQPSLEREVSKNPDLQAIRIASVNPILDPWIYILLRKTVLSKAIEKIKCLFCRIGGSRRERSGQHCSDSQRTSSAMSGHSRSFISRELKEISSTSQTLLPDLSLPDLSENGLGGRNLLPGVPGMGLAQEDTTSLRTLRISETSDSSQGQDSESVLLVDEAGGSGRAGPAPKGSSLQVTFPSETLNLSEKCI
SMILES,IC50 [1] [nM],IC50 [2] [nM],IC50 [3] [nM]
"O=C(O)CSCCCS[C@H]1C(=O)C[C@@H](O)[C@@H]1/C=C/C(O)Cc1csc2ccccc12 (single isomer, unassigned) [Example 25H]",69,> 10000,–
"O=C(O)CSCCCS[C@H]1C(=O)C[C@@H](O)[C@@H]1/C=C/C(O)CCc1ccc2ccccc2c1 (single isomer, unassigned) [Example 10H]",450,> 10000,> 10000
"COC(=O)CSCCCS[C@H]1C(=O)C[C@@H](O)[C@@H]1/C=C/[C@@H](O)CCc1cc2ccccc2s1 [Example 13L, {3-[(1R,2S,3R)-3-Hydroxy-2-((S)-(E)-3-hydroxy-5-(benzothienyl)pent-1-enyl)-5-oxocyclopentylsulfanyl]propylsulfanyl}acetic acid methyl ester]",93,> 10000,7200
"O=C(O)CSCCCS[C@H]1C(=O)C[C@@H](O)[C@@H]1/C=C/[C@@H](O)CCc1cc2ccccc2s1 [Example 14H, {3-[(1R,2S,3R)-3-Hydroxy-2-((S)-(E)-3-hydroxy-5-(benzothienyl)pent-1-enyl)-5-oxocyclopentylsulfanyl]propylsulfanyl}acetic acid]",27,> 10000,> 10000
"COC(=O)CSCCCS[C@H]1C(=O)C[C@@H](O)[C@@H]1/C=C/C(O)Cc1csc2ccccc12 (single isomer, unassigned) [Example 24L]",30,9300,> 10000
"CC(O)(/C=C/[C@H]1[C@H](O)CC(=O)[C@@H]1SCCCSCC(=O)O)Cc1ccc2ccccc2c1 (stereo partly drawn) [Example 31H, {3-[(1R,2S,3R)-3-Hydroxy-2-((E)-3-hydroxy-3-methyl-4-naphthalen-2-yl-but-1-enyl)-5-oxocyclopentylsulfanyl]propylsulfanyl}acetic acid]",300,–,8100
"C[C@@](O)(/C=C/[C@H]1[C@H](O)CC(=O)[C@@H]1SCCCSCC(=O)O)CCc1cc2ccccc2s1 [Example 34H, {3-[(1R,2S,3R)-3-Hydroxy-2-((S)-(E)-3-(hydroxy)-3-(methyl)-5-(benzothienyl)pent-1-enyl)-5-oxocyclopentylsulfanyl]propylsulfanyl}acetic acid]",32,> 10000,> 10000
"O=C(O)CSCCCS[C@H]1C(=O)C[C@@H](O)[C@@H]1/C=C/C(O)CCc1ccc2ccccc2c1 (single isomer, unassigned) [Example 10L]",19.5,> 10000,8300

# Stronger by IC50 [1], values ahead:
IC50 [1] [nM],IC50 [2] [nM],IC50 [3] [nM],SMILES
13,≥ 10000,> 10000,"O=C(O)CSCCCS[C@H]1C(=O)C[C@@H](O)[C@@H]1/C=C/[C@@H](O)CCc1cc2ccccc2s1 [Example 14L, {3-[(1R,2S,3R)-3-Hydroxy-2-((S)-(E)-3-hydroxy-5-(benzothienyl)pent-1-enyl)-5-oxocyclopentylsulfanyl]propylsulfanyl}acetic acid]"
5,2200,> 10000,"O=C(O)CSCCCS[C@H]1C(=O)C[C@@H](O)[C@@H]1/C=C/C(O)Cc1csc2ccccc12 (single isomer, unassigned) [Example 25L]"
6.2,> 10000,> 10000,"O=C(O)CSCCCS[C@H]1C(=O)C[C@@H](O)[C@@H]1/C=C/C(O)Cc1ccc2ccccc2c1 (single isomer, unassigned) [Example 22L]"

# From patent US7872045B2, “Combination therapy for glaucoma treatment” (Allergan, Inc., priority 2001, dated 2011)
